Assay results from patent US9597527B2, “Enhancement of penetration and action” (Merck Patent GmbH, priority 2010, dated 2017).

Experiment: In vitro skin permeation, Franz-type diffusion cells, with light device irradiation
Format: in vitro ADME, pig
Conditions: Fucicort cream 4 mg/cm^2 on SC, p<0.005
Protocol: Full Thickness skin is removed from the back of pig ears. The subcutaneous tissue is removed and the skin is mounted in open two-chamber Franz-type diffusion cells (diffusion area: 3.14 cm^−2; recipient volume: 10 ml). Temperature is kept at 32° C. at the skin surface. Recipient phase is a 0.05 M isotonic acetate buffer, pH 4.5, and 2-propanol (80:20%, vol/vol). The experiments are carried out under sink condition.
The test formulation (4 mg/cm^2) is applied to the stratum corneum (SC) side of the skin. The treatment is reapplied at 3, 21, 27, 45, and 51 h, which simulates the actual dosage regimen in patients. At appropriate times (3, 21, 27, 45, 51, and 70 h) a specific amount of recipient phase is withdrawn and replaced by thermostated fluid. Samples are kept at 4° C. for a maximum of 2 days until high-performance liquid chromatography (HPLC) analysis. All permeation experiments are carried out in 6 replicates.
The same experiment as described above is carried out.
The same experiment as described above is carried out. Again, the skin is irradiated for 2 h after each application of the cream, but with the devices Dev4-6 of Example 4 in three separate runs, one run for each device. The devices are positioned directly above the SC. If the cream is applied or reapplied the light emitting device is repositioned on the SC 5 minutes afterwards. After having the skin irradiated for 1 h, the irradiation source is removed from the skin. Again samples of the recipient are taken and analyzed by HPLC in time intervals given above.

- permeation enhanced as compared to the control experiment (skin irradiated for 30 min with IR device Dev5, positioned 5 minutes after application): 20%
- permeation enhanced as compared to the control experiment (skin irradiated for 2 h after each application with IR devices Dev4-6, one run each, all three devices): more than 27%
- permeation enhanced as compared to the control experiment (skin irradiated for 2 h after each application with device Dev1 (red OLED), recipient samples by HPLC): 14%
Compound: C[C@H]1C[C@H]2[C@@H]3CCC4=CC(=O)C=C[C@]4(C)[C@@]3(F)[C@@H](O)C[C@]2(C)[C@@]1(O)C(=O)CO [betamethasone]
